Tests used:
[1] = test system: cholinergic neurons, fimbria-fornix lesioned rat model; assay: Neuroprotective and restorative effect on cholinergic neurons using fimbria-fornix lesioned rat model (ChAT positive cells, hippocampal VAChT); assay type: in vivo; conditions: % of sham-operated group, mean±SEM; for OD in hippocampal VAChT (%) in test compound administration group: hippocampus; for Number of ChAT positive cells (%) in test compound administration group: medial septal area
Protocol: Neuroprotective and Restorative Effect on Cholinergic Neurons Usi Ng Fimbria-Fomix Lesioned Rat Model
(1) Preparation of Fimbria-Fomix Lesioned Rat Model
In this study, Sprague-Dawley male rats (Charles River Laboratories Japan, Inc.) with a body weight of about 250 to 350 g were used. The rat was anesthetized under the combination of three drugs: midazolam (2 mg/kg s.c.), medetomidine hydrochloride (0.15 mg/kg s.c.) and butorphanol tartrate (2.5 mg/kg s.c.) and fixed with a brain stereotaxis apparatus (Narishige Co., Ltd.). The cranial was exposed and a hole with 5 mm width was drilled in the skull from the median line 2 mm posterior to Bregma. A razor with 4 mm width was pierced into the Bregma in 5.5 mm depth to cut fimbria-fornmix. After hemostasis, the scalp was sutured. After the operation, the rat was brought back to the cage and recovered from the anesthesia. In the sham-operated group, a hole with 5 mm width was drilled in the skull from the median line 2 mm posterior to Bregma, but no razor was pierced.
(2) Compound Administration
The test compounds were orally administered to the rats once a day from five days to nine days after the operation (Example 1: 10 mg/kg) or from seven days to fourteen days after the operation (Example 3: 3 mg/kg). The vehicle used was 0.01 mol/L hydrochloric acid. In the sham-operated group, the vehicle was orally administered once a day similarly to the test compound administration group.
The rats were anesthetized under pentobarbital and transcardially perfused with ice-cold PBS. After the perfusion, the forebrain including the medial septal area was collected and immersed and shaken overnight with 4% paraformaldehyde. The immersion solution was replaced with 7.5% sucrose solution. It was immersed and shaken overnight in 7.5% sucrose solution, and the immersion solution was replaced with 15% sucrose solution and it was immersed and shaken overnight. The immersion solution was replaced with 30% sucrose solution and it was immersed and shaken overnight. […]
The prepared brain coronal frozen sections were stained with DAB (DAB PEROXIDASE SUBSTRATE KIT (Vector, SK-4100)) using a ChAT antibody (Santa Cruz, S.C.-20672) or a VAChT antibody (Merck Millipore, ABN100) as a primary antibody. The section image including the medial septal area or hippocampus as shown in “The mouse Brain in stereotaxic coordinates” (COMPACT THIRD EDITION, Keith B.J. Franklin & George Paxinos) was taken by an all-in-one fluorescence microscope (KEYENCE, BZ-X710) and ChAT positive cells of the medial septal area or optical density (OD) in hippocampal VAChT were measured by BZ analysis software (KEYENCE). […] Data are expressed as the mean±SEM. The differences between the vehicle-treated group and compound-treated (significant: #) was analyzed by unpaired t-test. […]

[2] = test system: Choline Acetyltransferase (ChAT) mRNA; assay: Measurement of choline acetyltransferase (ChAT) mRNA expression levels in the rat septal area; assay type: in vivo; conditions: SD rat medial septum, oral 10 mg/kg, 24 hours after administration, qPCR
Protocol: Measurement of Choline Acetyltransferase (ChAT) mRNA Expression Levels in the Rat Septal Area
(1) Compound Administration
In this study, SD male rats (Charles River Laboratories Japan, Inc.) with a body weight of about 250 to 350 g were used. The compound was dissolved in 0.01 mol/L hydrochloric acid, and orally administered.
At 24 hours after the administration of the compound, the whole brain tissue was collected under pentobarbital anesthesia. The medial septum was isolated from whole brain on ice and frozen with liquid nitrogen, and then stored at −80° C.
(3) Measurement of ChAT mRNA Expression Levels
For RNA purification, RNeasy Plus Mini Kit (#74136: QIAGEN) was used in this study. RNA purification was performed by the method described in the kit. After RNA purification, the total RNA concentration was measured by using QIAxpert Instrument (QIAGEN). cDNA was synthesized using SuperScript® VILO™ cDNA Synthesis Kit (#11754: Thermo Fisher Scientific). The synthesis of cDNA was performed by the method described in the kit. The synthesized cDNA was diluted 4 times with RNase free water, and the diluted cDNA solution was used as a sample. Taqman Universal PCR Master Mix (#4304437: Thermo Fisher Scientific), Taqman® Gene Expression Assays, INVENTORIED (#4331182: Thermo Fisher Scientific), RNase free water, and the cDNA solution were mixed in amounts of 10 μl, 1 μl, 4 μl, and 5 μl, respectively, and the resulting mixture was used as a measurement sample solution. Quantitative polymerase chain reaction (qPCR) was conducted using ABI PRISM® 7900HT (Thermo Fisher Scientific) by a fluorescence probe method. Analysis was performed by SDS 2.4 (Thermo Fisher Scientific). The results were calculated by the percentage of the amount of ChAT mRNA expression levels in the compound administration group increased from the amount of ChAT mRNA expression levels in the vehicle administration group.

[3] = oral 3 mg/kg once a day from seven to fourteen days after operation
[4] = oral 10 mg/kg once a day from five to nine days after operation

| Structure (SMILES) | OD in hippocampal VAChT (%) in test compound administration group [1, 3] | Number of ChAT positive cells (%) in test compound administration group [1, 3] | Amount (%) increased from the amount of ChAT mRNA expression levels in the vehicle administration group [2] [%] | OD in hippocampal VAChT (%) in test compound administration group [1, 4] | Number of ChAT positive cells (%) in test compound administration group [1, 4] [%] |
| --- | --- | --- | --- | --- | --- |
| CN1CCc2c(sc3nc4n(c(=O)c23)-c2sccc2C(=O)N(C)C4)C1 [Example 3, 5,10-dimethyl-5,6,9,10,11,12-hexahydropyrido[4″,3″:4′,5′]thieno[2′,3′:4,5]pyrimido[1,2-a]thieno[3,2-f][1,4]diazepine-4,13-dione] | 66.1 ± 14.2^# % | 74.1 ± 9.3^# % | 56.4 |  |  |
| CN1CCc2c(sc3nc4n(c(=O)c23)-c2ccc(F)cc2C(=O)N(C)C4)C1 [Example 1] |  |  | 73.3 | 77.1 ± 14.6^# % | 79.1 ± 15.7 |

— patent US10239889B1, “Pentacyclic compound” (Eisai R&D Management Co., Ltd., priority 2017, dated 2019)
